Measured values: patent US10329294B2, “Pyrazolopyrimidine inhibitors of IRAK4 activity” (MERCK SHARP & DOHME CORP., priority 2015, dated 2019)
Where a name gives a salt, the structure may show the parent alone.

target: IRAK4 (Homo sapiens (Human), UniProt Q9NWZ3); assay: IRAK4 Kinase Assay; type: biochemical; conditions: IMAP fluorescence polarization, 0.5 nM GST tagged IRAK4, 100 μM ATP, 30 minutes at 25° C.; read-out: IRAK4 IC50
Sequence (Q9NWZ3 whole entry): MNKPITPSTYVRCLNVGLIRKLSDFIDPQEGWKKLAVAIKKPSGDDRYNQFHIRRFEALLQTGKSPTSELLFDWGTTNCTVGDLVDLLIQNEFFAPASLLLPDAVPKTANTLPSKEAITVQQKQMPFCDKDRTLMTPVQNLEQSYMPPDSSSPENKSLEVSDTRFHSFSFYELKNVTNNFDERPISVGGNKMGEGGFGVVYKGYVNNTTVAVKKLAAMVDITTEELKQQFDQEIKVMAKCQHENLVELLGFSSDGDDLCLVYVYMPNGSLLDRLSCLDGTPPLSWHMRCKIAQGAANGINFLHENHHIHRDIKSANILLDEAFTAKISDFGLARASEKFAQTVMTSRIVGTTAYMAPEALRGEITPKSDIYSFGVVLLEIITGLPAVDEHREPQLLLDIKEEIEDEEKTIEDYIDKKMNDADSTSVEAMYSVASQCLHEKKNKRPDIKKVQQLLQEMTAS

IC50 [nM]	Structure (SMILES)
41	Cn1cc(NC(=O)c2cnn3ccc(N4C[C@@H]5CC[C@H]4CN5)nc23)c(C#N)n1 (single isomer, unassigned) [Example 156, N-(3-cyano-1-methyl-1H-pyrazol-4-yl)-5-[(1S,4S)- or (1R,4R)-2,5-diazabicyclo[2.2.2]oct-2-yl]pyrazolo[1,5-a]pyrimidine-3-carboxamide trifluoroacetate]
84	O=C(Nc1cscc1C(F)F)c1cnn2ccc(N3CCCNCC3)nc12 [Example 120, 5-(1,4-diazepan-1-yl)-N-[4-(difluoromethyl)thiophen-3-yl]pyrazolo[1,5-a]pyrimidine-3-carboxamide trifluoroacetate]
32	O=C(Nc1cscc1C(F)F)c1cnn2ccc(N3C[C@H]4CC[C@@H]3CN4)nc12 (single isomer, unassigned) [Example 155, 5-[(1S,4S)- or (1R,4R)-2,5-diazabicyclo[2.2.2]oct-2-yl]-N-[4-(difluoromethyl)thiophen-3-yl]pyrazolo[1,5-a]pyrimidine-3-carboxamide trifluoroacetate]
7	N[C@H]1CCCC[C@H]1Nc1ccn2ncc(C(=O)Nc3ccsc3C(F)(F)F)c2n1 [Example 144, 5-{[(1R,2S)-2-aminocyclohexyl]amino}-N-[2-(trifluoromethyl)thiophen-3-yl]pyrazolo[1,5-a]pyrimidine-3-carboxamide trifluoroacetate]
8080	O=C(Nc1ccccc1I)c1cnn2ccc(N3CCNCC4(CC4)C3)nc12 [Example 100, 5-(5,8-diazaspiro[2.6]non-5-yl)-N-(2-iodophenyl)pyrazolo[1,5-a]pyrimidine-3-carboxamide trifluoroacetate]
0.5	Cn1cc(NC(=O)c2cnn3ccc(N[C@@H]4CCCCNC4)nc23)c(C(F)(F)F)n1 (single isomer, unassigned) [Example 160, 5-[(3S)- or (3R)-azepan-3-ylamino]-N-[1-methyl-3-(trifluoromethyl)-1H-pyrazol-4-yl]pyrazolo[1,5-a]pyrimidine-3-carboxamide trifluoroacetate]
389	O=C(Nc1cscc1Br)c1cnn2ccc(N3CCCNCC3)nc12 [Example 123, N-(4-bromothiophen-3-yl)-5-(1,4-diazepan-1-yl)pyrazolo[1,5-a]pyrimidine-3-carboxamide trifluoroacetate]
2650	O=C(Nc1ccsc1Br)c1cnn2ccc(N[C@@H]3CCCC[C@@H]3O)nc12 [Example 196, N-(2-bromothiophen-3-yl)-5-{[(1R,2S)-2-hydroxycyclohexyl]amino} pyrazolo[1,5-a]pyrimidine-3-carboxamide trifluoroacetate]
119	Cn1cc(NC(=O)c2cnn3ccc(N4CCCNCC4)nc23)c(C#N)n1 [Example 125, N-(3-cyano-1-methyl-1H-pyrazol-4-yl)-5-(1,4-diazepan-1-yl)pyrazolo[1,5-a]pyrimidine-3-carboxamide trifluoroacetate]
106	Cn1cc(NC(=O)c2cnn3ccc(N4CCNCC4CC(F)(F)F)nc23)c(C(F)(F)F)n1 (stereo not shown) [Example 41, N-[1-methyl-3-(trifluoromethyl)-1H-pyrazol-4-yl]-5-[2-(2,2,2-trifluoroethyl)piperazin-1-yl]pyrazolo[1,5-a]pyrimidine-3-carboxamide trifluoroacetate]
41	Cn1cc(NC(=O)c2cnn3ccc(N4CC5CC4CCN5)nc23)c(C(F)(F)F)n1 (stereo not shown) [Example 74, 5-(2,6-diazabicyclo[3.2.1]oct-6-yl)-N-[1-methyl-3-(trifluoromethyl)-1H-pyrazol-4-yl]pyrazolo[1,5-a]pyrimidine-3-carboxamide trifluoroacetate]
8	Cn1cc(NC(=O)c2cnn3ccc(N[C@H]4CNCCC4(F)F)nc23)c(C(F)(F)F)n1 (single isomer, unassigned) [Example 245, 5-[(R or S)-(4,4-difluoropiperidin-3-yl)amino]-N-[1-methyl-3-(trifluoromethyl)-1H-pyrazol-4-yl]pyrazolo[1,5-a]pyrimidine-3-carboxamide trifluoroacetate]
1270	O=C(Nc1ccccc1Cl)c1cnn2ccc(N3CCCNCC3)nc12 [Example 105, N-(2-chlorophenyl)-5-(1,4-diazepan-1-yl)pyrazolo[1,5-a]pyrimidine-3-carboxamide trifluoroacetate]
57	N#Cc1ccccc1NC(=O)c1cnn2ccc(NC3CCCCNC3)nc12 (stereo not shown) [Example 272, 5-(azepan-3-ylamino)-N-(2-cyanophenyl)pyrazolo[1,5-a]pyrimidine-3-carboxamide trifluoroacetate]
464	N#Cc1sccc1NC(=O)c1cnn2ccc(N3CCCNCC3)nc12 [Example 111, N-(2-cyanothiophen-3-yl)-5-(1,4-diazepan-1-yl)pyrazolo[1,5-a]pyrimidine-3-carboxamide trifluoroacetate]
150	O=C(Nc1cscc1Cl)c1cnn2ccc(N3C[C@@H]4CC[C@H]3CN4)nc12 (single isomer, unassigned) [Example 169, N-(4-chlorothiophen-3-yl)-5-[(1S,4S)- or (1R,4R)-2,5-diazabicyclo[2.2.2]oct-2-yl]pyrazolo[1,5-a]pyrimidine-3-carboxamide trifluoroacetate]
0.5	Cn1cc(NC(=O)c2cnn3ccc(N4CCC[C@@H](N)C4)nc23)c(C(F)F)n1 [Example 90, 5-[(3R)-3-aminopiperidin-1-yl]-N-[3-(difluoromethyl)-1-methyl-1H-pyrazol-4-yl]pyrazolo[1,5-a]pyrimidine-3-carboxamide trifluoroacetate]
39	Cn1cc(NC(=O)c2cnn3ccc(NC4CCNCC4)nc23)c(C(F)(F)F)n1 [Example 7, N-[1-methyl-3-(trifluoromethyl)-1H-pyrazol-4-yl]-5-(piperidin-4-ylamino)pyrazolo[1,5-a]pyrimidine-3-carboxamide trifluoroacetate]
876	Cn1cc(NC(=O)c2cnn3ccc(N[C@@H]4CNC[C@H](F)C4)nc23)c(C(F)(F)F)n1 [Example 254, 5-(((3S,5R)-5-Fluoropiperidin-3-yl)amino)-N-(1-methyl-3-(trifluoromethyl)-1H-pyrazol-4-yl)pyrazolo[1,5-a]pyrimidine-3-carboxamide]
0.3	Cn1cc(NC(=O)c2cnn3ccc(N[C@@H]4CCCC[C@@H]4N)nc23)c(Br)n1 [Example 138, 5-{[(1R,2S)-2-aminocyclohexyl]amino}-N-(3-bromo-1-methyl-1H-pyrazol-4-yl)pyrazolo[1,5-a]pyrimidine-3-carboxamide trifluoroacetate]

Structure (SMILES)	IC50 [nM]
N[C@@H]1[C@H](Nc2ccn3ncc(C(=O)Nc4ccsc4C(F)F)c3n2)CCCC1(F)F [Example 170, 5-{[(1R,2R)-2-amino-3,3-difluorocyclohexyl]amino}-N-[2-(difluoromethyl)thiophen-3-yl]pyrazolo[1,5-a]pyrimidine-3-carboxamide]	560
Cn1cc(NC(=O)c2cnn3ccc(N4CCC[C@H](O)C4)nc23)c(C(F)(F)F)n1 [Example 22, 5-[(3S)-3-hydroxypiperidin-1-yl]-N-[1-methyl-3-(trifluoromethyl)-1H-pyrazol-4-yl]pyrazolo[1,5-a]pyrimidine-3-carboxamide]	2
Cn1cc(NC(=O)c2cnn3ccc(N4CC5CNC(COC5)C4)nc23)c(C(F)(F)F)n1 (stereo not shown) [Example 80, N-[1-methyl-3-(trifluoromethyl)-1H-pyrazol-4-yl]-5-(3-oxa-7,9-diazabicyclo[3.3.2]dec-7-yl)pyrazolo[1,5-a]pyrimidine-3-carboxamide trifluoroacetate]	29
Cn1cc(NC(=O)c2cnn3ccc(N4CCC[C@@H](O)C4)nc23)c(C(F)F)n1 [Example 25, N-[3-(difluoromethyl)-1-methyl-1H-pyrazol-4-yl]-5-[(3R)-3-hydroxypiperidin-1-yl]pyrazolo[1,5-a]pyrimidine-3-carboxamide]	0.5
Cc1nc(-c2nn(C)cc2NC(=O)c2cnn3ccc(N[C@@H]4CCCC[C@@H]4N)nc23)no1 [Example 288, 5-{[(1R,2S)-2-aminocyclohexyl]amino}-N-[1-methyl-3-(5-methyl-1,2,4-oxadiazol-3-yl)-1H-pyrazol-4-yl]pyrazolo[1,5-a]pyrimidine-3-carboxamide]	10
Cn1cc(NC(=O)c2cnn3ccc(N4CCC[C@H](N)C4)nc23)c(C(F)(F)F)n1 [Example 44, 5-[(3S)-3-aminopiperidin-1-yl]-N-[1-methyl-3-(trifluoromethyl)-1H-pyrazol-4-yl]pyrazolo[1,5-a]pyrimidine-3-carboxamide]	5
O=C(Nc1ccccc1Br)c1cnn2ccc(N[C@@H]3CCCC[C@@H]3O)nc12 [Example 195, N-(2-bromophenyl)-5-{[(1R,2S)-2-hydroxycyclohexyl]amino} pyrazolo[1,5-a]pyrimidine-3-carboxamide]	2930
Cn1cc(NC(=O)c2cnn3ccc(N4CC5CNC(C5)C4)nc23)c(C(F)F)n1 (stereo not shown) [Example 182, 5-[(3,6-diazabicyclo[3.2.1]oct-3-yl]-N-[3-(difluoromethyl)-1-methyl-1H-pyrazol-4-yl]pyrazolo[1,5-a]pyrimidine-3-carboxamide trifluoroacetate]	14
Cn1cc(NC(=O)c2cnn3ccc(N[C@H]4CNCC[C@H]4F)nc23)c(C(F)(F)F)n1 (single isomer, unassigned) [Example 231, 5-{[(3R,4S)- or (3S,4R)-4-fluoropiperidin-3-yl]amino}-N-[1-methyl-3-(trifluoromethyl)-1H-pyrazol-4-yl]pyrazolo[1,5-a]pyrimidine-3-carboxamide]	47
N#Cc1sccc1NC(=O)c1cnn2ccc(N[C@@H]3CCCC(F)(F)[C@@H]3N)nc12 [Example 191, 5-{[(1R,2R)-2-amino-3,3-difluorocyclohexyl]amino}-N-(2-cyanothiophen-3-yl)pyrazolo[1,5-a]pyrimidine-3-carboxamide]	156
N[C@@H]1[C@H](Nc2ccn3ncc(C(=O)Nc4ccsc4Cl)c3n2)CCCC1(F)F [Example 190, 5-{[(1R,2R)-2-amino-3,3-difluorocyclohexyl]amino}-N-(2-chlorothiophen-3-yl)pyrazolo[1,5-a]pyrimidine-3-carboxamide]	891
